The record followed here is patent publication US20100119997A1, “METHOD FOR PRODUCTION OF MESENCHYMAL CELL, METHOD FOR PRODUCTION OF TOOTH, AND MESENCHYMAL CELL FOR FORMATION OF TOOTH” (ORGAN TECHNOLOGIES INC., priority 2007, published 2010).

Data set [1] deals with AT805 cells (EC cells). Briefly: Differentiation induction of EC cells by DMSO, CD44/CD29 double staining and cell sorter. The class given is cell-based, mouse. The following applies: for CD44-positive and CD29-positive cells / Cell number: 14 h treatment. The method, then:
As the EC cells, AT805 cells (a clone derived from OTT6050, EC cells of the strain129; obtained from the Cell Bank, RIKEN Bioresource Center) were used. Culturing of AT805 cells was performed using Dulbecco's modified Eagle's medium (DMEM; manufactured by SIGMA or Kohjin Bio Co. Ltd.) supplemented with 10% by volume fetal calf serum (FCS: manufactured by JRH, JBS or Hyclone) and 55 μM 2-mercaptoethanol (manufactured by GIBCO). EC cells were usually plated at a concentration of 5 to 8×10^5 cells per 100 mm dish, and complete replacement of the medium and passage culture were repeated every other day. In passage culture, the cells were washed once with HCMF buffer (pH7.4; 10 mM Hepes, 136.9 mM NaCl, 0.34 mM […], 13.9 mM glucose, 5.37 mM KCl), and 5 ml of an enzyme solution wherein trypsin-EDTA.2Na (manufactured by GIBCO) was dissolved at the final concentration of 0.025% was then added thereto, followed by an enzyme treatment at 37° C. for 1 minute. Subsequently, an equal amount of DMEM supplemented with 10% FCS was added to disperse the cells, and the cells were then precipitated and collected by centrifugation. The collected cells were resuspended and plated on a new culture dish to carry out passage culture.
EC cells collected by trypsin treatment were suspended in DMEM supplemented with 10% by volume FCS and dimethylsulfoxide (DMSO: manufactured by SIGMA) at the final concentration of 0.5 to 5% by volume, and plated at the concentration of 1.0×10^6 cells per 100 mm dish. Culture was carried out under 5% CO2 at 37° C., and after 14 hours, the cells were washed once with HCMF buffer, followed by replacement of the medium with DMEM supplemented with 10% by volume FCS.
EC cells treated with DMSO was continuously cultured for 6 days (19 days only in the case of 5% by volume DMSO) with replacement of a half amount of the medium every 3 days with DMEM supplemented with 10% by volume FCS, and observation was carried out as appropriate. When a cell population containing undifferentiated cells was grown, it washed once with HCMF buffer and then suspended by addition of Ca^2+/Mg^2+-free PBS(−)(EDTA/BSA-PBS) supplemented with 3 mM EDTA and 0.5% BSA, followed by centrifugation to collect cells as precipitates. The cells were resuspended in EDTA/BSA-PBS and then subjected to double staining with an FITC-labeled anti-CD44 antibody (CD44-FITC: manufactured by BD Pharmingen) and a PE-labeled anti-CD29 antibody (CD29-PE: manufactured by BD Pharmingen). A CD44-positive and CD29-positive cell fraction was isolated using a cell sorter, Epics ALTRA (manufactured by Beckman Coulter), to obtain an EC cell fraction wherein differentiation was induced by a DMSO treatment and undifferentiated EC cell were excluded (see FIG. 2). These cells were designated DMSO-EC cells.

The test system of data set [2] is AT805 cells (EC cells). Briefly: Differentiation induction of EC cells by retinoic acid, CD44/CD29 double staining and cell sorter. The class given is cell-based, mouse. The following applies: 72 h treatment, 7 culture days. The method, then: AT805 cells collected by a trypsin treatment in the same manner as in Example 1 were plated at a concentration of 1.0×10^6 cells per 100 mm dish, and, on the next day, the medium was replaced with DMEM supplemented with 10% by volume FCS, which was also added with retinoic acid (manufactured by SIGMA) at a final concentration of 0 to 10.0 μM, to stimulate the cells. After 72 hours of culture, the cells were washed twice with HCMF buffer, and the whole medium was replaced with DMEM supplemented with 10% by volume FCS only.
Culturing was continued for 7 days with replacement of a half amount of the medium every 3 days with DMEM supplemented with 10% by volume FCS, and observation was carried out as appropriate. A cell population grown after the RA treatment, which contains undifferentiated cells, was washed once with HCMF, and 3 mM EDTA-0.5% BSA-PBS(−) was added thereto, followed by incubation thereof at 37° C. After collecting cells, the cells were subjected to double staining with CD44 FITC (BD Pharmingen) and CD29 (BD Pharmingen) PE to separate and obtain CD44-positive and CD29-positive cells using Epics ALTRA (Beckman Coulter), and thus a cell population after exclusion of undifferentiated cells, which cell population is composed of only differentiated cells, was obtained. These cells were designated RA-EC cells.

Setting [3] is: DMSO 5.0 v/v %, 19 culture days.

Take `C[S+](C)[O-]` [DMSO, dimethyl sulfoxide]: in the data set with AT805 cells (EC cells) [1] (5% by volume DMSO), the “Survival of EC cells immediately after treatment” value was “most cells died immediately after the treatment”. In addition, the “CD44-positive and CD29-positive cells” value in the data set with AT805 cells (EC cells) [1] (DMSO 0.5 v/v %, 6 culture days) is 0.3%; with AT805 cells (EC cells) [1] (DMSO 1.0 v/v %, 6 culture days), 0.5%; in the data set on AT805 cells (EC cells) [1] (DMSO 2.5 v/v %, 6 culture days) it was 13.7%; with AT805 cells (EC cells) [1] (setting [3]) it was 93.0%. In addition, the Cell number in the data set with AT805 cells (EC cells) [1] (DMSO 0.5 v/v %, 6 culture days) was 1.15 ×10^7 cells; in the data set with AT805 cells (EC cells) [1] (DMSO 1.0 v/v %, 6 culture days), 1.19 ×10^7 cells; with AT805 cells (EC cells) [1] (DMSO 2.5 v/v %, 6 culture days), 1.64 ×10^7 cells; with AT805 cells (EC cells) [1] (setting [3]) it was 2.83 ×10^7 cells.
`CC1=C(/C=C/C(C)=C/C=C/C(C)=C/C(=O)O)C(C)(C)CCC1` [RA, retinoic acid]: the “CD44-positive and CD29-positive cells” value came to 10.8% in the data set on AT805 cells (EC cells) [2] (RA 0.5 μM); 10.0% in the data set with AT805 cells (EC cells) [2] (RA 1.0 μM); 11.3% with AT805 cells (EC cells) [2] (RA 2.0 μM); 11.5% with AT805 cells (EC cells) [2] (RA 5.0 μM); 10.4% in the data set on AT805 cells (EC cells) [2] (RA 10.0 μM). Further, the Cell number is 1.5 ×10^6 cells in the data set on AT805 cells (EC cells) [2] (RA 0.5 μM); 1.1 ×10^6 cells in the data set with AT805 cells (EC cells) [2] (RA 1.0 μM); 1.3 ×10^6 cells with AT805 cells (EC cells) [2] (RA 2.0 μM); 0.5 ×10^6 cells in the data set with AT805 cells (EC cells) [2] (RA 5.0 μM); 0.7 ×10^6 cells with AT805 cells (EC cells) [2] (RA 10.0 μM).
